“Also recorded” adds a separate entry of the source.
Key:
[1] = tested on: PANC-1; assay: CellTiterGlo cell viability assay, PANC-1; format: cell-based; conditions: Homo sapiens; PANC-1, pancreatic cancer, p53 R273H, 72 hours
Experimental: (§1) • 1) Cell lines: HT29, SW480, DLD-1, HCT116, and p53-null HCT116 cells, H1975, MDA-MD-231, U251, FaDu, CAL-27, PANC-1, Aspc-1, and MRC5 were obtained from the ATCC and cultured as recommended. Cells were regularly authenticated by bioluminescence, growth, and morphologic observation. The cells were routinely examined for Mycoplasma and all cell lines underwent STR authentication. • 2) Western blotting: After treatment, protein lysates were collected for Western blot analysis. 15 μg of protein was used for SDS-PAGE. After primary and secondary antibody incubations, the signal was detected by chemiluminescent detection kit, imaged by Syngene (Imgen Technologies). […] The cell viability was assessed by CellTiterGlo bioluminescent cell proliferation assay (Promega), following the manufacturer's protocol. Bioluminescence imaging was measured using the IVIS imager. Percentage of cell viability (mean±SEM) at each dose was calculated against the respective DMSO control. The IC50 values were determined from the sigmoidal dose-response curves using GraphPad Prims4. • 4) Caspase activity assay: Cells were seeded in 96-well plate (1×10^4 cells/well). […] The caspase 3/7 activity was assessed by Caspase-Glo® 3/7 Assay kit (Promega), following the manufacturer's protocol. Bioluminescence imaging was measured using the IVIS imager. […]

[2] = tested on: H1975; assay: CellTiterGlo cell viability assay, H1975; format: cell-based; conditions: Homo sapiens, NCI-H1975; H1975, NSCLC, p53 R273H, 72 hours
Experimental: as §1

[3] = tested on: human cancer cells with mutant p53; assay: CellTiterGlo cell viability assay, panel of cancer cell lines; format: cell-based
Experimental: as §1

[4] = tested on: MDA-MB-231; assay: CellTiterGlo cell viability assay, MDA-MB-231; format: cell-based; conditions: Homo sapiens; MDA-MB-231, breast cancer, p53 R280K, 72 hours
Experimental: as §1

[5] = tested on: ATF4 and CHOP in HCT116 p53−/− cells; assay: Western blot of ATF4 and CHOP, HCT116 p53−/−; format: cell-based, human
Experimental: as §1

[6] = tested on: MDA-MB-468; assay: CellTiterGlo cell viability assay, MDA-MB-468; format: cell-based; conditions: Homo sapiens; MDA-MB-468, breast cancer, p53 R273H, 72 hours
[7] = tested on: CAL-27; assay: CellTiterGlo cell viability assay, CAL-27; format: cell-based; conditions: Homo sapiens; CAL-27, head & neck squamous cell carcinoma, p53 H193L, 72 hours
Experimental: as §1

[8] = tested on: HT29 cells; assay: Flow cytometry sub-G1 (PI staining) analysis; format: cell-based, human; conditions: for sub-G1 populations: HT29, co-treatment with PG3-Oc and TRAIL; for sub-G1 population: 1 μM PG3-Oc for 48 hours
Experimental: • 1) Cell lines: HT29, SW480, DLD-1, HCT116, and p53-null HCT116 cells, H1975, MDA-MD-231, U251, FaDu, CAL-27, PANC-1, Aspc-1, and MRC5 were obtained from the ATCC and cultured as recommended. Cells were regularly authenticated by bioluminescence, growth, and morphologic observation. The cells were routinely examined for Mycoplasma and all cell lines underwent STR authentication. • 2) Western blotting: After treatment, protein lysates were collected for Western blot analysis. 15 μg of protein was used for SDS-PAGE. After primary and secondary antibody incubations, the signal was detected by chemiluminescent detection kit, imaged by Syngene (Imgen Technologies). Antibodies for Puma, FLIPL/S and p53 (Santa Cruz Biotechnology), cleaved caspase 8, caspase 9, caspase 3, cleavage PARP, eIF2α, p-eIF2α(Ser51), CHOP, ATF4, DR5, FOXO3a, p-FOXO3a(Ser253), NF-κB p65, p-NF-κB p65(Ser536), c-Jun, p-c-Jun(Ser63), JNK, p-JNK(Thr183/Tyr185) (Cell Signaling Technology), Noxa, p21 (Calbiochem), p73 (Bethyl laboratories Inc), Ran (BD Biosciences), […] (Sigma). • 3) Cell viability assay: Cells were seeded in 96-well plate (6×10^3 cells/well). Cells were treated with different concentrations of compounds or dimethyl sulfoxide (DMSO) control for 72 hours. The cell viability was assessed by CellTiterGlo bioluminescent cell proliferation assay (Promega), following the manufacturer's protocol. Bioluminescence imaging was measured using the IVIS imager. Percentage of cell viability (mean±SEM) at each dose was calculated against the respective DMSO control. The IC50 values were determined from the sigmoidal dose-response curves using GraphPad Prims4. • 4) Caspase activity assay: Cells were seeded in 96-well plate (1×10^4 cells/well). Cells were treated with different concentrations of compounds or DMSO control for 24 hours. The caspase 3/7 activity was assessed by Caspase-Glo® 3/7 Assay kit (Promega), following the manufacturer's protocol. Bioluminescence imaging was measured using the IVIS imager. Caspase activity was normalized to cell numbers and compared to those of DMSO treatment as control in each cell line. Data is reported as mean RLU+SEM (n=3). • 5) Colony formation assays: Five hundred cells were seeded per well on 6-well plates and treated with different concentrations of compounds for 24 hours, then, cells were cultured with drug-free complete medium for 2 weeks with fresh medium changed every 7 days. Cells were fixed with 10% formalin and stained with 0.05% crystal violet at the end of 2 weeks period of cell culture. • 6) Flow cytometry assay: • a) Cell Cycle Analysis: Propidium iodide (PI) staining and flow cytometry were used to determine the degree of cellular apoptosis. Cells were seeded at 3×10^5 cells/well in six-well plates. Cells were treated with PG3-Oc for 48 hours. Cells were harvested, fixed by 70% ethanol, and stained by propidium iodide, then flow cytometry was performed as previously described (Smithen et al., Org. Biomol. Chem., 2013, 11, 62-68). The percentage of hypodiploid cells (sub-G1) was used to quantify dead cells in apoptosis assays. • b) Early apoptosis detection: Cells were seeded at 3×10^5 cells/well in six-well plates. Cells were treated with PG3-Oc for 48 hours. […]

[9] = tested on: HT29 cells; assay: Western blot of apoptosis markers and PUMA, HT29; format: cell-based, human
Experimental: as §1

[10] = tested on: U251; assay: CellTiterGlo cell viability assay, U251; format: cell-based; conditions: Homo sapiens, U-251; U251, glioblastoma multiforme, p53 R273H, 72 hours
Experimental: as §1

[11] = tested on: SW480, DLD1 and p53-null cell line HCT116; assay: CellTiter-Glo luminescent cell viability assay (Example 1); format: cell-based, human
Experimental: SW480, DLD-1, DLD1-p73KD, HCT116, and p53-null HCT116, MRC5 and Wi38 cells were seeded at 5,000 cells per well on 96-well plates. […] Then, cells were mixed with an equal volume of CellTiter-Glo® reagents (Promega), following the manufacturer's protocol, and bioluminescence imaging was measured using the IVIS imager.

CCCCCCCCOC(=O)CCc1c(C)[nH]c(/C=C2\N=C(c3ccc[nH]3)C=C2OC)c1C [PG3-Oc, Octyl (Z)-3-(5-((4′-methoxy-1H,5′H-[2,2′-bipyrrol]-5′-ylidene)methyl)-2,4-dimethyl-1H-pyrrol-3-yl)propanoate]
IC50 [1]: 136 nM
IC50 [2]: 190 nM
potency for inhibition of cancer cell growth ([3]; HCT116 and SW480, 72 hours, comparison with prodigiosin and obatoclax): comparable with prodigiosin (P) and obatoclax (Ob); also recorded: comparable to prodigiosin and obatoclax
IC50 values ([3]; panel of human cancer cell lines with mutant p53, 72 hours): within the nano-molar range
IC50 [4]: 242 nM
concentration at which induction of ATF4 and CHOP occurred [5]: 1.25 µM
IC50 [6]: 97.6 nM
IC50 [7]: 33.9 nM
sub-G1 populations ([8]; siRNA knockdown of DR5): 29.5%
sub-G1 populations ([8]; without DR5 knockdown): 72.9%
sub-G1 population ([8]; HT29, knockdown of PUMA by siRNA): 11.1%
sub-G1 population ([8]; HT29, siControl): 25.8%
time at which PUMA protein was first induced post treatment ([9]; HT29, time-course): 16 h
concentration sufficient to activate cleaved caspase-8 and -3 and cleaved-PARP ([9]; western blot): 0.5 µM
IC50 [10]: 100 nM
induction of cell death ([11]; SW480, DLD1, p53-null HCT116): potently induced cell death
IC50 values ([11]; SW480, DLD1, p53-null HCT116, 72 hours): within nanomolar range

— patent US12344599B2, “Prodigiosin analogs and methods of use” (Institute For Cancer Research, priority 2016, dated 2025)
